Test systems include A549; CCRF-CEM; COLO 205; EKVX; HCT-116; HCT-15; IGROV-1; M14; MDA-N; MOLT-4; Malme-3M; NCI/ADR-RES; OVCAR-3; OVCAR-5; PC-3; SW-620; U-251; UO-31; NCI-H460; SK-MEL-28.
Assay in all cases: DTP human tumour cell line panel, 48 h

Experimental findings from ChEMBL document CHEMBL1201862, “PubChem BioAssay data set” (2004) are described below.

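Grown in 96-well plates, cells were treated for 48 hours with each compound at five concentrations. Insufficient inhibition: endpoint recorded as highest concentration tested. Abbreviation: GI50, concentration required for 50% inhibition of growth.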 The source made the active and inactive calls. Rule as the data show it: active = GI50 up to about 1.1 µM and inactive = higher.

Broadly, the GI50 is the concentration giving 50% growth inhibition. For `C1COCCOP2(N3CC3)=NP(N3CC3)(=NP(N3CC3)(N3CC3)=N2)OCCOCCO1` (configuration not stated), the GI50 in the assay with A549 was > 100 µM (inactive); with CCRF-CEM, 77.3 µM (inactive); with COLO 205 it was > 100 µM (inactive); in the assay on EKVX it was > 100 µM (inactive); with HCT-116 it was > 100 µM (inactive); in the assay on HCT-15, > 100 µM. For the same compound, the GI50 in the assay with IGROV-1, in the assay on M14, with MDA-N, in the assay on MOLT-4, in the assay on Malme-3M and with NCI/ADR-RES was > 100 µM (inactive) throughout. Also, the GI50 in the assay with OVCAR-3, in the assay on OVCAR-5, in the assay on PC-3, in the assay with SW-620, with U-251 and in the assay on UO-31 was > 100 µM (inactive) throughout.

Consider `CCOC(=O)[C@@]12NN=N[C@@H]1[C@H]1CO[C@H](c3ccccc3)N1C2=O`, for which the GI50 in the assay on A549 is 16.9 µM (inactive); with CCRF-CEM, 7.1 µM (inactive); in the assay with COLO 205 it was 10.2 µM (inactive); in the assay on EKVX it was 13.9 µM (inactive); in the assay on HCT-116, 15 µM (inactive); in the assay on HCT-15, 6.62 µM. Further, the GI50 was 5.24 µM (inactive) with IGROV-1; 6.18 µM (inactive) in the assay on M14; 11.1 µM (inactive) with MDA-N; 5.33 µM (inactive) with MOLT-4; 13.3 µM (inactive) with Malme-3M; 4.44 µM (inactive) with NCI-H460. Moreover, the GI50 was 22.1 µM (inactive) in the assay on NCI/ADR-RES; 8.53 µM (inactive) with OVCAR-3; 14.2 µM (inactive) in the assay on OVCAR-5; 10.1 µM (inactive) with PC-3; 5.25 µM (inactive) in the assay on SK-MEL-28; 7.67 µM (inactive) in the assay with SW-620. Moreover, in the assay on U-251, the GI50 is 4.54 µM (inactive).

As for `CC(=O)NNc1nc(C)c(C(=O)/C=C/C=C/c2ccccc2)s1`, the GI50 with CCRF-CEM is 61.2 µM (inactive); in the assay with COLO 205 it was > 100 µM (inactive); in the assay on EKVX it was 24.2 µM (inactive); with HCT-116 it was 57.1 µM (inactive); in the assay with HCT-15 it was > 100 µM; in the assay with IGROV-1, 33.7 µM (inactive). Also, the GI50 is 48.9 µM (inactive) in the assay on M14; > 100 µM (inactive) in the assay with MDA-N; 56.1 µM (inactive) with MOLT-4; > 100 µM (inactive) with Malme-3M; > 100 µM (inactive) in the assay with NCI-H460; 70.6 µM (inactive) with NCI/ADR-RES. Moreover, the GI50 with OVCAR-3 was 52.2 µM (inactive); in the assay with OVCAR-5 it was > 100 µM (inactive); in the assay on SK-MEL-28, > 100 µM (inactive); in the assay with SW-620 it was > 100 µM (inactive); in the assay with U-251, 71.9 µM (inactive); with UO-31 it was > 100 µM (inactive).

With `Nc1nc(N)c2ncn(CC3CCC(CO)C3)c2n1` (configuration not stated), the GI50 with A549 is > 100 µM (inactive); in the assay on CCRF-CEM it was > 100 µM (inactive); with COLO 205 it was > 100 µM (inactive); in the assay with EKVX, > 100 µM (inactive); with HCT-116 it was > 100 µM (inactive); with HCT-15, > 100 µM. Besides, the GI50 with M14, in the assay with MDA-N, in the assay with MOLT-4, in the assay on NCI/ADR-RES, in the assay with OVCAR-3 and with OVCAR-5 was > 100 µM (inactive) in each case. Also, the GI50 in the assay on PC-3, with SK-MEL-28, with SW-620, with U-251 and in the assay on UO-31 was > 100 µM (inactive) each time.

As to `N#CC(C#N)/N=C/c1ccncc1`, the GI50 in the assay on A549 was > 100 µM (inactive); in the assay on CCRF-CEM, 28.7 µM (inactive); with COLO 205, > 100 µM (inactive); in the assay with EKVX, > 100 µM (inactive); in the assay on HCT-116 it was > 100 µM (inactive); in the assay on HCT-15, > 100 µM. Also, the GI50 in the assay on IGROV-1, in the assay with M14, in the assay on MDA-N, with MOLT-4, in the assay with Malme-3M and in the assay on NCI/ADR-RES was > 100 µM (inactive) each time. The GI50 in the assay on OVCAR-3, with OVCAR-5, in the assay on PC-3, in the assay on SK-MEL-28, in the assay on SW-620 and in the assay on U-251 was > 100 µM (inactive) throughout.

Turning to `CC(=O)O[C@H]1CC[C@@H](OC(C)=O)[C@H]2[C@H](O)[C@H](O)[C@@H]1n1c(=O)n(-c3ccccc3)c(=O)n12`, the GI50 with A549 was > 100 µM (inactive); in the assay with CCRF-CEM, > 100 µM (inactive); with COLO 205 it was > 100 µM (inactive); in the assay with EKVX, > 100 µM (inactive); in the assay on HCT-116, > 100 µM (inactive); in the assay with HCT-15, > 100 µM. Also, the GI50 with IGROV-1, in the assay on M14, in the assay on MDA-N, in the assay on MOLT-4, in the assay with Malme-3M and with NCI/ADR-RES was > 100 µM (inactive) in each case. For the same compound, the GI50 in the assay on OVCAR-3, in the assay on OVCAR-5, with PC-3, in the assay on SK-MEL-28, in the assay on SW-620 and with U-251 was > 100 µM (inactive) throughout. For the same compound, the GI50 in the assay with UO-31 was > 100 µM (inactive).

For `CCOC(=O)C1CCCCN1C(=O)Cc1c[nH]c2ccccc12` (configuration not stated), the GI50 with A549 was 55.2 µM (inactive); in the assay with CCRF-CEM, 42.5 µM (inactive); in the assay with COLO 205 it was 66.2 µM (inactive); with EKVX, 59.2 µM (inactive); in the assay with HCT-116, > 100 µM (inactive); in the assay with HCT-15, 87.7 µM. Moreover, the GI50 was 57.7 µM (inactive) in the assay with IGROV-1; 63.4 µM (inactive) with M14; 49.8 µM (inactive) in the assay with MDA-N; 27.4 µM (inactive) with MOLT-4; 57.4 µM (inactive) in the assay on Malme-3M; > 100 µM (inactive) in the assay with NCI-H460. The GI50 with NCI/ADR-RES was 69.7 µM (inactive); in the assay on OVCAR-3 it was 52.6 µM (inactive); in the assay on OVCAR-5 it was > 100 µM (inactive); in the assay with PC-3, 31.7 µM (inactive); in the assay with SK-MEL-28, > 100 µM (inactive); in the assay with SW-620 it was 94.8 µM (inactive). Further, the GI50 in the assay on U-251 is 67.3 µM (inactive).

`O=C1C[S+]([O-])C23c4cc5ccccc5n4CCC2CCCN13` (configuration not stated): the GI50 in the assay with A549 was > 100 µM (inactive); with COLO 205, > 100 µM (inactive); in the assay on EKVX, > 100 µM (inactive); with HCT-116 it was > 100 µM (inactive); with HCT-15, > 100 µM; with IGROV-1, > 100 µM (inactive). Moreover, the GI50 with M14, in the assay with MDA-N, with MOLT-4, in the assay on Malme-3M, in the assay on NCI/ADR-RES and with OVCAR-3 was > 100 µM (inactive) each time. For the same compound, the GI50 in the assay with OVCAR-5, with PC-3, with SK-MEL-28, with SW-620 and in the assay on U-251 was > 100 µM (inactive) each time.

Regarding `CC1(C)CC2=C(SC3C=CC=CC3N2)C(=O)C1C(=O)C(N)=O` (configuration not stated), the GI50 in the assay with A549 is > 100 µM (inactive); in the assay with CCRF-CEM it was > 100 µM (inactive); in the assay with COLO 205, > 100 µM (inactive); in the assay with EKVX it was > 100 µM (inactive); with HCT-116 it was > 100 µM (inactive); in the assay with HCT-15 it was > 100 µM. The GI50 in the assay with IGROV-1 was > 100 µM (inactive); with M14, > 100 µM (inactive); with MDA-N, > 100 µM (inactive); in the assay on MOLT-4, 40.4 µM (inactive); with NCI-H460 it was > 100 µM (inactive); in the assay on NCI/ADR-RES, > 100 µM (inactive). Moreover, the GI50 in the assay on OVCAR-3 is > 100 µM (inactive); with OVCAR-5, > 100 µM (inactive); with PC-3, 65.9 µM (inactive); in the assay with SK-MEL-28, > 100 µM (inactive); in the assay on SW-620, > 100 µM (inactive); with U-251, > 100 µM (inactive). Also, the GI50 in the assay with UO-31 is 54.5 µM (inactive).

`CC(C)CCC[C@@H](C)C1CCC2[C@@H]3CCC4C[C@@H](NS(C)(=O)=O)CC[C@]4(C)C3CC[C@@]21C` (some centres not stated): the GI50 in the assay with A549 was > 100 µM (inactive); in the assay with CCRF-CEM it was > 100 µM (inactive); in the assay with COLO 205, > 100 µM (inactive); with EKVX, > 100 µM (inactive); in the assay with HCT-116 it was > 100 µM (inactive); with HCT-15, > 100 µM. Also, the GI50 in the assay on IGROV-1, in the assay on M14, in the assay on MDA-N, in the assay with MOLT-4, in the assay on Malme-3M and with NCI-H460 was > 100 µM (inactive) in each case. The GI50 in the assay with NCI/ADR-RES, with OVCAR-3, with PC-3, with SK-MEL-28, in the assay with SW-620 and in the assay with U-251 was > 100 µM (inactive) throughout. The GI50 with UO-31 was > 100 µM (inactive).

Regarding `C=C(C)[C@H]1CC23C(=O)C(C(=O)C(C)C)=C(O)[C@](C)(C[C@H]2C1(C)C)C3=O` [LALIBINONE B], the GI50 in the assay on A549 is 20.3 µM (inactive); with CCRF-CEM, 8.3 µM (inactive); in the assay with COLO 205, 11.1 µM (inactive); with EKVX, 11 µM (inactive); in the assay on HCT-15 it was 17.2 µM; with IGROV-1, 12.5 µM (inactive). Further, the GI50 is 16.1 µM (inactive) with M14; 18.9 µM (inactive) in the assay on MDA-N; 3.72 µM (inactive) with MOLT-4; 14.3 µM (inactive) in the assay with Malme-3M; 17 µM (inactive) with NCI-H460; 13.1 µM (inactive) in the assay on NCI/ADR-RES. The GI50 in the assay on OVCAR-3 is 16.1 µM (inactive); in the assay on OVCAR-5, 14.5 µM (inactive); with PC-3, 12.6 µM (inactive); in the assay with SK-MEL-28, 15 µM (inactive); in the assay on SW-620, 17.8 µM (inactive); in the assay on U-251, 19.1 µM (inactive). In the assay on UO-31, the GI50 was 18.3 µM (inactive).
